Assays:
[1] = tested on: Puccinia recondita; assay: In vivo preventive test on Puccinia recondita (brown rust on wheat); settings: 264 h, 500 ppm of active ingredient, preventive spray, evaluated 11 days after inoculation, read-out: efficacy
Experimental: (§1) Example A: In Vivo Preventive Test on Puccinia recondita (Brown Rust on Wheat) [table] The active ingredients were made soluble and homogenized in a mixture of dimethyl sulfoxide/acetone//Tween® 80 and then diluted in water to the desired concentration. Young plants of wheat were treated by spraying the active ingredient prepared as described above. Control plants were treated only with an aqueous solution of acetone/dimethyl sulfoxide/Tween® 80. After 24 hours, the plants were contaminated by spraying the leaves with an aqueous suspension of Puccinia recondita spores. The contaminated wheat plants were incubated for 24 hours at 20° C. and at 100% relative humidity and then for 10 days at 20° C. and at 70-80% relative humidity. The test was evaluated 11 days after the inoculation. 0% means an efficacy which corresponds to that of the control plants while an efficacy of 100% means that no disease was observed.

[2] = tested on: Uromyces appendiculatus; assay: In vivo preventive test on Uromyces appendiculatus (bean rust); settings: 264 h, 500 ppm of active ingredient, preventive spray, evaluated 11 days after inoculation, read-out: efficacy
Experimental: as §1, with “D:” for “A:”, “Uromyces appendiculatus (Bean Rust)” for “Puccinia recondita (Brown Rust on Wheat)”, “bean” for “wheat”, “Uromyces appendiculatus” for “Puccinia recondita”

[3] = tested on: Blumeria graminis fsp. hordei; assay: In vivo preventive Blumeria test (barley); settings: 168 h, 500 ppm of active ingredient, preventive spray, evaluated 7 days after inoculation, read-out: efficacy
Experimental: Example E: In Vivo Preventive Blumeria Test (Barlev) [table] To produce a suitable preparation of active compound, 1 part by weight of active compound or active compound combination was mixed with the stated amounts of solvent and emulsifier, and the concentrate was diluted with water to the desired concentration. To test for preventive activity, young plants were sprayed with the preparation of active compound or active compound combination at the stated rate of application. After the spray coating had been dried, the plants were dusted with spores of Blumeria graminis fsp. hordei. The plants were placed in the greenhouse at a temperature of approximately 18° C. and a relative atmospheric humidity of approximately 80% to promote the development of mildew pustules. The test was evaluated 7 days after the inoculation. 0% means an efficacy which corresponds to that of the untreated control, while an efficacy of 100% means that no disease is observed.

[4] = tested on: Septoria tritici; assay: Example F-C: in vivo 5 days preventive Septoria tritici test (wheat); settings: Zymoseptoria tritici, 504 h, inoculated 5 days after spraying, evaluated 21 days after inoculation, read-out: Efficacy in % Example F-C
Experimental: Example F: In Vivo Septoria tritici Test (Wheat); Comparison of Pyridinyloxy-Pyridyl Compounds According to the Invention Vs. Compounds Known from WO-A 2010/146116 [table] To produce a suitable preparation of active compound, 1 part by weight of active compound or active compound combination is mixed with the stated amounts of solvent and emulsifier, and the concentrate is diluted with water to the desired concentration. Example F-C: In Vivo 5 Days Preventive Septoria tritici Test (Wheat) To test for preventive and long-lasting activity, young plants are sprayed with a preparation of active compound or active compound combination at the stated rate of application. After the spray coating has been dried, the plants are placed in the greenhouse at a temperature of approximately 15° C. and a relative atmospheric humidity of approximately 80%. 5 days later the plants are sprayed with a spore suspension of Septoria tritici. The plants remain for 48 hours in an incubation cabinet at approximately 20° C. and a relative atmospheric humidity of approximately 100% and afterwards for 60 hours at approximately 15° C. in a translucent incubation cabinet at a relative atmospheric humidity of approximately 100%. Then the plants are placed in the greenhouse at a temperature of approximately 15° C. and a relative atmospheric humidity of approximately 80%. The test is evaluated 21 days after the inoculation. 0% means an efficacy which corresponds to that of the untreated control, while an efficacy of 100% means that no disease is observed.

`CC(O)(Cn1cncn1)c1cnc(Oc2ccc(C(F)(F)F)nc2)cc1C(F)(F)F` (stereo not drawn) [I-04] gave a pest or weed control at 500 ppm [1] of 90 to 100%, a pest or weed control at 500 ppm [2] of 90 to 100% and a pest or weed control at 500 ppm [3] of 90 to 100%.

`OC(Cn1cncn1)c1ccc(Oc2ccc(C(F)(F)F)nc2)nc1C(F)(F)F` (stereo not drawn) [I-09] showed a pest or weed control at 500 ppm [1] of 90 to 100%, a pest or weed control at 500 ppm [2] of 90 to 100% and a pest or weed control at 500 ppm [3] of 90 to 100%. The pest or weed control at 500 ppm [4] was 100%.

Work on `CC(O)(Cn1cncn1)c1cnc(Oc2ccc(Br)nc2)cc1C(F)(F)F` (stereo not drawn) [I-07] yielded a pest or weed control at 500 ppm [1] of 80 to 89%, a pest or weed control at 500 ppm [2] of 70 to 79% and a pest or weed control at 500 ppm [3] of 90 to 100%. The pest or weed control at 500 ppm [4] was 100%.

With `CC(O)(Cn1cncn1)c1cnc(Oc2ccc(Cl)nc2)cc1C(F)(F)F` (stereo not drawn) [I-06, 2-[6-[(6-chloro-3-pyridyl)oxy]-4-(trifluoromethyl)-3-pyridyl]-1-(1,2,4-triazol-1-yl)propan-2-ol] the pest or weed control at 500 ppm [1] was 90 to 100%, the pest or weed control at 500 ppm [2] was 90 to 100% and the pest or weed control at 500 ppm [3] was 90 to 100%. The pest or weed control at 500 ppm [4] was 88%.

In the case of `CC(O)(Cn1cncn1)c1ccc(Oc2ccc(Cl)nc2)nc1C(F)(F)F` (stereo not drawn) [I-05], the pest or weed control at 500 ppm [1] is reported as 80 to 89%, the pest or weed control at 500 ppm [2] is reported as 90 to 100% and the pest or weed control at 500 ppm [3] is reported as 90 to 100%. For the same molecule, the pest or weed control at 500 ppm [4] was 63%.

`CC(O)(Cn1cncn1)c1ccc(Oc2ccc(C(F)(F)F)nc2)nc1C(F)(F)F` (stereo not drawn) [I-02, 1-(1,2,4-triazol-1-yl)-2-[2-(trifluoromethyl)-6-[[6-(trifluoromethyl)-3-pyridyl]oxy]-3-pyridyl]propan-2-ol] gave a pest or weed control at 500 ppm [1] of 80 to 89%, a pest or weed control at 500 ppm [2] of 90 to 100% and a pest or weed control at 500 ppm [3] of 90 to 100%. The pest or weed control at 500 ppm [4] was 100%.

`CC(O)(Cn1cncn1)c1ccc(Oc2ccc(Br)nc2)nc1C(F)(F)F` (stereo not drawn) [I-01, 2-[6-[(6-bromo-3-pyridyl)oxy]-2-(trifluoromethyl)-3-pyridyl]-1-(1,2,4-triazol-1-yl)propan-2-ol] gave a pest or weed control at 500 ppm [1] of 90 to 100%, a pest or weed control at 500 ppm [2] of 80 to 89% and a pest or weed control at 500 ppm [3] of 90 to 100%. It also gave a pest or weed control at 500 ppm [4] of 100%.

`OC(Cn1cncn1)c1cnc(Oc2ccc(Br)nc2)cc1C(F)(F)F` (stereo not drawn) [I-13] showed a pest or weed control at 500 ppm [1] of 90 to 100%, a pest or weed control at 500 ppm [3] of 90 to 100% and a pest or weed control at 500 ppm [4] of 100%.
